Measured values from patent US20230405151A1, “USE OF IRAK4 MODULATORS FOR GENE THERAPY” (Genzyme Corporation, priority 2022, published 2023).

System: C57BL/6J mice injected with AAV (LacZ transgene)
Assay: In vivo mouse AAV model: CD8 TEM and lacZ tetramer staining of PBMCs and splenocytes
Conditions: chow 100 mg/kg from 15 days prior to AAV, versus AAV group
Method: In-vivo mice experiments. C57BL/6J mice were purchased from Jackson Laboratories. 6-8-week male mice were divided into 3 groups—PBS group, AAV group and AAV+IRAK4 group all groups with 10 mice each. Zimlovisertib IRAK4 inhibitor (Synonyms: PF-06650833) Cat. No.: HY-19836 (MedChemExpress) was mixed with mouse chow Catalog #2016, Teklad Global 16% Protein Rodent Diets https://www.inotivco.com/rodent-natural-ingredient-2016-diets at a dose of 30 mg/kg. AAV+IRAK4 group was fed the chow with Zimlovisertib IRAK4 inhibitor 15 days prior to AAV injection whereas PBS and AAV group were fed with mouse chow Catalog #2016, Teklad Global 16% Protein Rodent Diets https://www.inotivco.com/rodent-natural-ingredient-2016-diets. PBS group mice were injected intramuscularly with 100 ul PBS, AAV group was injected intramuscularly with 1e11 vg per quadricep muscle of both legs, 100 ul volume.
The same experiment design was followed with n=6 mice in each group PBS group, AAV group and AAV+IRAK4 degrader PROTAC IRAK4 degrader-1 Cat. No.: HY-129966 (MedChemExpress) that was mixed with chow at 100 mg/kg and fed to mice 15 days prior to AAV injection. […] AAV capsid used in the study had LacZ transgene. All animal experiments were conducted in accordance with the Institutional Animal Care and Use Committees at Sanofi, Framingham. Submandibular bleeds were performed weekly, and necropsy was performed three weeks post AAV injection.
PBMC isolation and surface staining. 120 ul blood was collected in K2EDTA coated tubes. The blood was mixed with DBPS at 1:1 ration and pipetted into a separate tube containing Ficoll (GE17-5442-02) to ensure no mixing of the blood and Ficoll phases. The mixture was centrifuged at 2000 RPM for 25 minutes at room temperature (9 acceleration and no braking). The buffy coat containing the peripheral blood mononuclear cells (PBMCs) was collected, transferred to a new tube, and centrifuged for five minutes at 400 RCF. PBMCs were washed three times with phosphate buffered saline (PBS) containing 1% fetal bovine serum (FBS) or fetal calf serum (FCS) and counted. The PBMC cells thus obtained were stained with different antibodies to quantify percentage of different immune cell subsets in peripheral blood.
PBMC CD8 TEM and lacZ tetramer staining. The PBMC was isolated from ˜120 μl of mouse blood, and it was transferred to a 96-well U-bottom plate. […]

SMILES: Cn1c(=O)n(C2CCC(=O)NC2=O)c2cccc(C#CCOC3CCN(C[C@H]4CC[C@H](n5cc(NC(=O)c6cnn7ccc(N8C[C@H]9C[C@@H]8CO9)nc67)c(C(F)F)n5)CC4)CC3)c21 (some centres unmarked) [KT-474]
- LacZ tetramer positive (transgene LacZ specific CD8 T) cells in PBMCs (14 days post AAV injections): reduced significantly
- LacZ tetramer positive (transgene LacZ specific CD8 T) cells in spleen (21 days post AAV injections): reduced significantly
